Experiments:
[1] = target: T1, Human acetylcholinesterase (hAChE) (Homo sapiens, UniProt P22303); experiment: Ellman assay, human acetylcholinesterase inhibition; format: biochemical; details: for effect on AChE inhibition (in words): selected active components, FIG. 2 and 3
T1 construct: purchased Sigma
Procedure: The screening for modest cholinesterease inhibitors by the method of Ellman assay was used. Human acetylcholinesterase (hAChE) in buffer was added to the test chemicals/TCM extract followed by the addition of acetylthiocholine (ATCI) substrates and Ellman's reagent, (5′5-dithio-bis-(2-nitrobenzoate), DTNB). The AChE inhibitory activity was monitored by the release of thiocholine which was then reacted with DTNB to form a bright yellow product. The optical densities of the color product formed was spectrophotometrically determined.
After 10 minutes, the optical densities were measured in a 96-well plate reader at 415 nm. Optical densities was inversely proportional to the inhibiting activity.
Selected active components were dissolved in 50% DMSO. 100% DMSO was not recommended in this assay as it lowers the enzyme vitality.
Ellman assay was performed on the selected active components, protocatechualdehyde (MW=138.12), cryptotanshinone (MW=296), salvianic acid B (MW=718) and dihydrotanshinone I (MW=278). 10-fold dilution was made with highest concentration at 40 μM. (FIG. 2)
10-fold dilution was made with the highest concentration at 80 μM. (FIG. 3)

[2] = tested on: interleukin-12 (IL-12) and interferon-gamma (IFN-gamma) production; details: compared with cryptotanshinone and tanshinone I; cited from earlier work
[3] = target: T2, butrylcholinesterase (hBChE) (Homo sapiens, UniProt P06276); experiment: Ellman assay with butrylcholinesterase (specificity); format: biochemical; details: hAChE run in parallel; FIGS. 4a and 4b
T2 construct: purchased Sigma
Excerpt: In order to test the specificity of cryptotanshinone and dihydrotanshinone I towards hAChE, butrylcholinesterase (hBChE) instead of hAChE was used in Ellman assay. hBChE is concentrated in […] and it is named as pseudoesterase as it has very homology as hAChE.
Ellman assay was preformed as mentioned, except that hBChE (commercially obtained from Sigma.) was used. Ellman assay using hAChE was also preformed in parallel for comparison.

[4] = tested on: mouse neuronal cell line N1E-115; experiment: MTT cytotoxicity assay on N1E-115; format: cell-based; details: FIG. 5b
Excerpt: (§1) MTT assay was used to check for the toxicity of the selected primary hAChE inhibitors. Since only metabolic active cell can cleave the tetrazolium salt MTT and form a formazen dye. The O.D. measure at 540 nm is directly proportional to the number of viable cell.

[5] = tested on: neuronal cell line-SHSY5Y; experiment: MTT cytotoxicity assay on SHSY5Y; format: cell-based; details: FIG. 5a
Excerpt: as §1

Gram positive bacteria = details: broad range of Gram positive bacteria; cited from earlier work

T1 sequence (P22303 32-614): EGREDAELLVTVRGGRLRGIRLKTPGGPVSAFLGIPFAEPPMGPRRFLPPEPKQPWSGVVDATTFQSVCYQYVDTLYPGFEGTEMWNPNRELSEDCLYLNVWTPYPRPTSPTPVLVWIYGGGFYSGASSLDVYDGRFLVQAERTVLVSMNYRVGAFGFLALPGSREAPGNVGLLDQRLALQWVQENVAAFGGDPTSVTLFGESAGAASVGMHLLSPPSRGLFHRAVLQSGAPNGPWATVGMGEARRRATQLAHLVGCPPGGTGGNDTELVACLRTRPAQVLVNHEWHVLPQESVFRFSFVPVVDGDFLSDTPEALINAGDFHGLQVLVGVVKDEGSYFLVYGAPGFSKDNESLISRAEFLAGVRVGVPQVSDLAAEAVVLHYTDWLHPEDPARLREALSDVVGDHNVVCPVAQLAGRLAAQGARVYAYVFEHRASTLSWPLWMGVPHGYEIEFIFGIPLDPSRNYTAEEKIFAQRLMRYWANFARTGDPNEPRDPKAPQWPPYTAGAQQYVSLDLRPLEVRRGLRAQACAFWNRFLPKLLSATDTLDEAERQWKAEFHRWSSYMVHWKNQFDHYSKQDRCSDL
T2 sequence (P06276 29-602): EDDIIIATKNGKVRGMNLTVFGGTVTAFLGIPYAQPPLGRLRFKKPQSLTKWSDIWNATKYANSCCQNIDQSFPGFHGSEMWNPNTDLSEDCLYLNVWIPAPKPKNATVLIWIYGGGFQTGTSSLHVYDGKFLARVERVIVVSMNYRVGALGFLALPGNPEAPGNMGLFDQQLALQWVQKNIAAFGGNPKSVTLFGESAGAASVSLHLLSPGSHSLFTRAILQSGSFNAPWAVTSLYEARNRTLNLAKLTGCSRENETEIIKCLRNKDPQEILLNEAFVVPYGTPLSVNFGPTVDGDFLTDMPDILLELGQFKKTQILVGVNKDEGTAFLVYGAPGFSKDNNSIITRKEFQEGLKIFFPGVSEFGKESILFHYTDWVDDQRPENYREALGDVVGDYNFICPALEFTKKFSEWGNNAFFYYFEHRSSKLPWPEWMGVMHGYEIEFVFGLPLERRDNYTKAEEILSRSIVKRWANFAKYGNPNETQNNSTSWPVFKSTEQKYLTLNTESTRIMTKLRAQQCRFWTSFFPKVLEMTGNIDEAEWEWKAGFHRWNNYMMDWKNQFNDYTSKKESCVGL

## Cc1cccc2c3c(ccc12)C1=C(C(=O)C3=O)[C@@H](C)CO1 [dihydrotanshinone I]
[1]
  IC50: 0.5 to 0.8 µM
[2]
  inhibition of IL-12 and IFN-gamma production: effectively inhibit
[3]
  selectivity for AChE versus BChE: higher selectivity for AChE than BChE
[4]; N1E-115, 1 μM
  MTT cytotoxicity: No significant cytotoxicity
[5]; 1 μM
  MTT cytotoxicity: No significant cytotoxicity
Gram positive bacteria
  antibacterial activity: antibacterial activity

## Cc1coc2c1C(=O)C(=O)c1c-2ccc2c(C)cccc12 [tanshinone I]
[1]
  IC50: ~70 µM
[4]; N1E-115, 1 μM
  MTT cytotoxicity: No significant cytotoxicity
[5]; 1 μM
  MTT cytotoxicity: No significant cytotoxicity

## C[C@H]1COC2=C1C(=O)C(=O)c1c2ccc2c1CCCC2(C)C [cryptotanshinone]
[1]
  IC50: 5 to 8 µM
[3]
  selectivity for AChE versus BChE: higher selectivity for AChE than BChE
[4]; N1E-115, 1-50 μM
  MTT cytotoxicity: No significant cytotoxicity
[5]; 1-50 μM
  MTT cytotoxicity: No significant cytotoxicity
Gram positive bacteria
  antibacterial activity: antibacterial activity

## O=C(C=Cc1ccc(O)c2c1C(C(=O)OC(Cc1ccc(O)c(O)c1)C(=O)O)C(c1ccc(O)c(O)c1)O2)OC(Cc1ccc(O)c(O)c1)C(=O)O (centres unmarked) [salvianic acid B, reference compound]
[1]
  effect on AChE inhibition (in words): little effect

## Cc1coc2c1C(=O)C(=O)c1c-2ccc2c1CCCC2(C)C [tanshinone IIA, reference compound]
[1]
  effect on AChE inhibition (in words): little effect

## O=Cc1ccc(O)c(O)c1 [protocatechualdehyde, reference compound]
[1]
  effect on AChE inhibition (in words): little effect

From patent publication US20040191334A1, “Use of transhinone derivates as cholinesterase inhibitors in treating related diseases” (priority 2003, published 2004)
